This passage reports IC50 and inhibition results from ChEMBL document CHEMBL4619828, “Discovery of Potent and Orally Bioavailable Small Molecule Antagonists of Toll-like Receptors 7/8/9 (TLR7/8/9)” (ACS Med Chem Lett, 2020).

Holding throughout (assay type): cell-based
The target of one test is T1, Toll-like receptor 9 (Homo sapiens, UniProt Q9NR96).
T1 sequence (Q9NR96 whole entry): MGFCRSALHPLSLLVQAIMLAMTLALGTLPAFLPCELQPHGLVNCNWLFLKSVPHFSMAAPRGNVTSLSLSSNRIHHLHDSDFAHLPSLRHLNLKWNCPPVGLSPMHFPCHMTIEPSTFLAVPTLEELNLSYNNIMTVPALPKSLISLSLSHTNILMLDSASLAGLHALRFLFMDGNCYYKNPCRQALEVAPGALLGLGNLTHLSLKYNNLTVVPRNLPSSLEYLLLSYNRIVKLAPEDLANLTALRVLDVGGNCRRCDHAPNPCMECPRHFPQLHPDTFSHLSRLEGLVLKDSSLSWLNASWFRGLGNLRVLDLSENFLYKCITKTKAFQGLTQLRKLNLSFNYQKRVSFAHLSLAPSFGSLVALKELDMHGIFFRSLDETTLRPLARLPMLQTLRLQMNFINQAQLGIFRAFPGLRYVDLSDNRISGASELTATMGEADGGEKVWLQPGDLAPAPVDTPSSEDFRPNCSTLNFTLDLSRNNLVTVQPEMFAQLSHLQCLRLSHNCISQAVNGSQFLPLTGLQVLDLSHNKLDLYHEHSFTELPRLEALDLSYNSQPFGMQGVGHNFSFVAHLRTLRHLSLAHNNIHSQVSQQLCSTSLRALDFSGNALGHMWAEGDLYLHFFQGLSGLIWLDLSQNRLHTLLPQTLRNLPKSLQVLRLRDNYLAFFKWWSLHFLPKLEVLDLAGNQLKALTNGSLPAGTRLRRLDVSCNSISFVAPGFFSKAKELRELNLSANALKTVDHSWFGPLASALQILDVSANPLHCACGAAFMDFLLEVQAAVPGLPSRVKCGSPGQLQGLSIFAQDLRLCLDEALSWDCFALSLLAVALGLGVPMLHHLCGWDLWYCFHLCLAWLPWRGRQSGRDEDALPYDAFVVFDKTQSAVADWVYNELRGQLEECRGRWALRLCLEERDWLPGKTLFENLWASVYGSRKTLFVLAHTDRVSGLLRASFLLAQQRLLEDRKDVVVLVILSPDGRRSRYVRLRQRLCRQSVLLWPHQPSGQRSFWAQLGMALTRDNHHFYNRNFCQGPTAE
As to the kind of experiment: Antagonist activity at human TLR9 overexpressed in HEK-Blue cells assessed as inhibition of ODN2006-induced NFkappaB and AP-1 activation preincubated for 30 mins followed by ODN2006 stimulation measured after 22 hrs by quanti-blue SEAP assay.

For another test, the target named is T2, Toll-like receptor 7 (Homo sapiens, UniProt Q9NYK1).
T2 sequence (Q9NYK1 whole entry): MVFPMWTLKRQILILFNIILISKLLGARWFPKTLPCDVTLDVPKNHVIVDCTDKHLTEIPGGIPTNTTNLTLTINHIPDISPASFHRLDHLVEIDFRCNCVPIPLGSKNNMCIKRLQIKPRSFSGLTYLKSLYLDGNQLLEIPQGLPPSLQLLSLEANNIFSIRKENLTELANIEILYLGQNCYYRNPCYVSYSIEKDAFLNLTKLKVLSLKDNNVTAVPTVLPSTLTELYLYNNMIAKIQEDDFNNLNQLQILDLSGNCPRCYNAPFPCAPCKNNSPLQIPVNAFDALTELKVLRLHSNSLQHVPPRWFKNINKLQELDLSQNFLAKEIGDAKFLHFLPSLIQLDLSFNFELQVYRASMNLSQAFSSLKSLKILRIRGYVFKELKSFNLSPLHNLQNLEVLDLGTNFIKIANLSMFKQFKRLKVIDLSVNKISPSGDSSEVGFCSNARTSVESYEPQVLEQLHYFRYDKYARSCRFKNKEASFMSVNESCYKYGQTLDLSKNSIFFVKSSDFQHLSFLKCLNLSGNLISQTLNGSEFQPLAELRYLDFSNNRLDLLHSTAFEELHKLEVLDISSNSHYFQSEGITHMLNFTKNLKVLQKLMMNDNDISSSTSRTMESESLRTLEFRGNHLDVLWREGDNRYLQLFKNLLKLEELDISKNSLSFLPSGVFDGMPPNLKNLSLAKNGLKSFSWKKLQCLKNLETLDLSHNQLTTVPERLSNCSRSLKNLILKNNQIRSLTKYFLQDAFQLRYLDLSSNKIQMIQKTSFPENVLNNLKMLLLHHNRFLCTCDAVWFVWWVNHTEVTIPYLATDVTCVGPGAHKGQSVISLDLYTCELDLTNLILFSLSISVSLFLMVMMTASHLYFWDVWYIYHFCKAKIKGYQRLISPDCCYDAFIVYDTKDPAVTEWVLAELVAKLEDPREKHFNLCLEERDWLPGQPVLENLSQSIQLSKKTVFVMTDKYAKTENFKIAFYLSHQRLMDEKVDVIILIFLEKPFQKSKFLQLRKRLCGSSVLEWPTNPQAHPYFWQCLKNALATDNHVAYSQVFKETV
In words: Antagonist activity at human TLR7 overexpressed in HEK-Blue cells assessed as inhibition of gardiquimod-induced NFkappaB and AP-1 activation preincubated for 30 mins followed by gardiquimod stimulation measured after 22 hrs by quanti-blue SEAP assay.

In test [1] the target is T3, Toll-like receptor 9 (Homo sapiens) (UniProt Q9NR96).
T3 sequence (whole entry): T1 sequence (Q9NR96 whole entry)
In words: Antagonist activity at human TLR9 overexpressed in HEK-Blue cells assessed as inhibition of ODN2006-induced NFkappaB and AP-1 activation at 10 uM preincubated for 30 mins followed by ODN2006 stimulation measured after 22 hrs by quanti-blue SEAP assay relative to control.

The next test concerns the target T4, Toll-like receptor 3 (Homo sapiens, UniProt O15455).
T4 sequence (O15455 whole entry): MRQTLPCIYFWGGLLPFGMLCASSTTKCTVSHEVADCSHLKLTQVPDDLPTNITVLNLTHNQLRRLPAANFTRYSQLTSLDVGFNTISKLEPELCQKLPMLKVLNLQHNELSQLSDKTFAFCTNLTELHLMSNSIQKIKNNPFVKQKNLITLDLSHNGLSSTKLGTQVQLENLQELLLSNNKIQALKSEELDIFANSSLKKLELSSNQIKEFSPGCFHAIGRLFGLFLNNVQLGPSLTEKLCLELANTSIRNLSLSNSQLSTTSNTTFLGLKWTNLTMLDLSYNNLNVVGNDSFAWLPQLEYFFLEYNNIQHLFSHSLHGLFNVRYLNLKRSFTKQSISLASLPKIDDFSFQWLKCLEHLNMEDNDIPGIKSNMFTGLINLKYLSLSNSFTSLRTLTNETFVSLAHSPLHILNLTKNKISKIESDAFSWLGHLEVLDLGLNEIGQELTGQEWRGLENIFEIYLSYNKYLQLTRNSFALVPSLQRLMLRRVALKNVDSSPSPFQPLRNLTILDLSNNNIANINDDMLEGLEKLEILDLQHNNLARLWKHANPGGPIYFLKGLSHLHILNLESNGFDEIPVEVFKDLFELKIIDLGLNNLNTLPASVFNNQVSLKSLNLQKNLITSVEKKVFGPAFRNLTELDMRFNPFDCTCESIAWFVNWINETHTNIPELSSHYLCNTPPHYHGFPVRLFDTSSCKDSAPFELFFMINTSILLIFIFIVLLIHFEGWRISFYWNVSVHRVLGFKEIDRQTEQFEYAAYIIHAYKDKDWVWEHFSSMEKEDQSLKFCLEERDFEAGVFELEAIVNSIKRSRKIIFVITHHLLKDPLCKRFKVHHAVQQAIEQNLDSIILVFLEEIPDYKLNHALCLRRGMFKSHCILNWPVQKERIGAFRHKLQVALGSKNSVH
As to the kind of experiment: Antagonist activity at human TLR3 overexpressed in HEK-Blue cells assessed as inhibition of Poly IC-induced NFkappaB and AP-1 activation preincubated for 30 mins followed by Poly IC stimulation measured after 22 hrs by quanti-blue SEAP assay.

The target in the next test is Toll-like receptor 4 (Homo sapiens, UniProt O00206). In words: Antagonist activity at human TLR4 overexpressed in HEK-Blue cells assessed as inhibition of […] induced NFkappaB and AP-1 activation preincubated for 30 mins followed by […] stimulation measured after 22 hrs by quanti-blue SEAP assay.
Chain of Toll-like receptor 4 (O00206 whole entry): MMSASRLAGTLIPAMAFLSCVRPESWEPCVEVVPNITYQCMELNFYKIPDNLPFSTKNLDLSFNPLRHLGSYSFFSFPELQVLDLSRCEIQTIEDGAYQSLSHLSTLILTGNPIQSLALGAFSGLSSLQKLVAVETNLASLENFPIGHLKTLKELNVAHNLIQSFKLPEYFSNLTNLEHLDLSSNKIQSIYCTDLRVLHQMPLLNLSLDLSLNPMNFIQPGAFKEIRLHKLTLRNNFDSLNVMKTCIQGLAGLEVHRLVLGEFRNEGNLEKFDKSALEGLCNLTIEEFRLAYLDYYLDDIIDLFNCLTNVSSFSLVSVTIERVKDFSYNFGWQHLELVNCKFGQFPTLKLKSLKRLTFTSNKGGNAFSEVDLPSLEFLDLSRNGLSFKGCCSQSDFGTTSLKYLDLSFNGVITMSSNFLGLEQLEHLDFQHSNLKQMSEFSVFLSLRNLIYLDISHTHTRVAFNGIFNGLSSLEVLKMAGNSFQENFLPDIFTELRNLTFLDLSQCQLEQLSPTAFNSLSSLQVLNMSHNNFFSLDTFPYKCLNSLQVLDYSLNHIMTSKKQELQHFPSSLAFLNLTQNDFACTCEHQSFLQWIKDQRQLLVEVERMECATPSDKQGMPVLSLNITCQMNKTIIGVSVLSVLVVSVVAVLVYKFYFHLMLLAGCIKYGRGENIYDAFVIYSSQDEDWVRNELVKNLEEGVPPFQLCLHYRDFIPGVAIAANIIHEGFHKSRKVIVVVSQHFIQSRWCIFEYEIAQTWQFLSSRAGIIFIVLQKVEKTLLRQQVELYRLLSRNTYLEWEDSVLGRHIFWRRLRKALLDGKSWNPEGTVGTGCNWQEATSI

In the case of `CNCCN1CCC(c2ccc3[nH]c(-c4ccccc4Cl)c(F)c3c2)CC1`, the IC50 (commonly the concentration at which inhibition is half-maximal) on Toll-like receptor 9 amounted to 21700 nM.

Consider `CNCCN1CCC(c2ccc3[nH]c(-c4ccccc4OC)c(F)c3c2)CC1`, for which the results for the IC50 on Toll-like receptor 7 and at Toll-like receptor 9 were 610 nM and 23300 nM, respectively. In addition, in test [1], the inhibition (commonly the change of the read-out against control, counted positive when it falls) is less than 5%. On to `COc1ccc(-c2[nH]c3ccc(C4CCN(Cc5cncn5C)CC4)cc3c2C)cc1OC`, for which the IC50 at Toll-like receptor 7 stood at 920 nM; at Toll-like receptor 9 it was 2710 nM. In the case of `CNCCN1CCC(c2ccc3[nH]c(-c4ccc5c(c4)OCO5)c(C)c3c2)CC1`, the IC50 at Toll-like receptor 7 was 650 nM; on Toll-like receptor 9, 1200 nM. Regarding `CNCCN1CCC(c2ccc3[nH]c(-c4ccc(OC)c(OC)c4)c(C)c3c2)CC1`, the 50% inhibitory concentration (IC50) was found to be 250 nM on Toll-like receptor 7, 430 nM at Toll-like receptor 9, 2160 nM at Toll-like receptor 3 and 15000 nM on Toll-like receptor 4. As to `CNCCN1CCC(c2ccc3[nH]c(-c4ccccc4OC)c(C)c3c2)CC1`, the figures for the IC50 on Toll-like receptor 7 and at Toll-like receptor 9 were greater than 10000 nM and 1100 nM, respectively. Consider `CCc1c(-c2ccc(OC)c(OC)c2)[nH]c2ccc(C3CCN(CCNC)CC3)cc12`, for which the IC50 on Toll-like receptor 7 was 130 nM. The same measure, in the same setting: as for `COc1ccc(-c2[nH]c3ccc(C4CCN(C5CCN(C)CC5)CC4)cc3c2C)cc1OC`, the figure is 730 nM. On to `CNCCN1CCC(c2ccc3[nH]c(-c4ccc(OC)c(OC)c4)c(Cl)c3c2)CC1`, for which the IC50 on Toll-like receptor 9 amounted to 430 nM. Same read-out and setting: as for `COc1ccc(-c2[nH]c3ccc(C4CCN(Cc5nccn5C)CC4)cc3c2C)cc1OC`, the figure is 850 nM; as for `COc1ccc(-c2[nH]c3ccc(C4CCN(C5CNC5)CC4)cc3c2C)cc1OC`, 2340 nM. On to `CNCCN1CCC(c2ccc3[nH]c(-c4cccc(OC)c4)c(C)c3c2)CC1`, for which the IC50 at Toll-like receptor 7 came out at 6170 nM; on Toll-like receptor 9 it was 1870 nM. As to `COc1ccc(-c2[nH]c3ccc(C4CCN(C(C)=O)CC4)cc3c2C)cc1OC`, the IC50 at Toll-like receptor 7 is 1310 nM; at Toll-like receptor 9, greater than 50000 nM.

On to `CNCCN1CCC(c2ccc3[nH]c(-c4cccc(C)c4)c(C)c3c2)CC1`, for which the concentration for half-maximal inhibition (IC50) at Toll-like receptor 7 was greater than 10000 nM; on Toll-like receptor 9, 2620 nM. For `CNCCN1CCC(c2ccc3[nH]c(-c4cccc(C#N)c4)c(C)c3c2)CC1`, the 50% inhibitory concentration (IC50) was greater than 10000 nM at Toll-like receptor 7 and 460 nM at Toll-like receptor 9. `CCOc1cc(-c2[nH]c3ccc(C4CCN(CCNC)CC4)cc3c2C)ccc1OC(C)C`: the half-inhibitory concentration (IC50) at Toll-like receptor 9 amounted to 1660 nM. Regarding `CNCCN1CCC(c2ccc3[nH]c(-c4ccc(C)cc4)c(C)c3c2)CC1`, the IC50 is greater than 10000 nM on Toll-like receptor 7 and 5390 nM at Toll-like receptor 9. Regarding `COc1ccc(-c2[nH]c3ccc(C4CCNCC4)cc3c2C)cc1OC`, the IC50 at Toll-like receptor 9 was found to be 4850 nM.

On to `CNCCN1CCC(c2ccc3[nH]c(-c4ccccc4C)c(C)c3c2)CC1`, for which the figures for the IC50 on Toll-like receptor 7 and on Toll-like receptor 9 were greater than 10000 nM and 2140 nM, respectively. `CNCCN1CCC(c2ccc3[nH]c(-c4cccc(OC)c4OC)c(C)c3c2)CC1`: the IC50 on Toll-like receptor 7 is greater than 10000 nM; on Toll-like receptor 9, 2200 nM. Take `COc1ccc(-c2[nH]c3ccc(C4CCN(CC5CCCCN5C)CC4)cc3c2C)cc1OC` (stereo not given): the IC50 came to 850 nM at Toll-like receptor 7 and 740 nM on Toll-like receptor 9. Taken in the same sequence, the figures for `CNCCN1CCC(c2ccc3[nH]c(-c4ccccc4)c(C)c3c2)CC1` were greater than 10000 nM and 1800 nM.

Regarding `CNCCN1CCC(c2ccc3[nH]c(-c4ccc(C(N)=O)cc4)c(C)c3c2)CC1`, the IC50 on Toll-like receptor 7 was determined as 16600 nM; at Toll-like receptor 9 it was 270 nM. With `CNCCN1CCC(c2ccc3[nH]c(-c4ccccc4C#N)c(C)c3c2)CC1`, the IC50 on Toll-like receptor 7 is greater than 10000 nM; at Toll-like receptor 9 it was 600 nM. As for `CNCCN1CCC(c2ccc3[nH]c(-c4ccc(OC)c(OC)c4)c(CC(F)(F)F)c3c2)CC1`, the IC50 on Toll-like receptor 7 amounted to 70 nM; at Toll-like receptor 9, 750 nM. In the case of `CNCCN1CCC(c2ccc3[nH]c(-c4ccc(OC)c(OC)c4)c(C#N)c3c2)CC1`, at Toll-like receptor 7, the 50% inhibitory concentration (IC50) is greater than 10000 nM. Take `CNCCN1CCC(c2ccc3[nH]c(-c4ccc(OC)cc4)c(C)c3c2)CC1`: the IC50 on Toll-like receptor 7 was found to be 5460 nM; on Toll-like receptor 9 it was 500 nM. For `COc1ccc(-c2[nH]c3ccc(C4CCN(Cc5cnc(C)[nH]5)CC4)cc3c2C)cc1OC`, the IC50 on Toll-like receptor 7 was 3490 nM. For `CNCCN1CCC(c2ccc3[nH]c(-c4ccc(OC)cc4OC)c(C)c3c2)CC1`, the IC50 is greater than 10000 nM at Toll-like receptor 7 and 2330 nM on Toll-like receptor 9. For `COc1ccc(-c2[nH]c3ccc(C4CCN(Cc5ccncc5)CC4)cc3c2C)cc1OC`, the IC50 at Toll-like receptor 9 amounted to 3360 nM. For `CNCCN1CCC(c2ccc3[nH]c(-c4ccc(C#N)cc4)c(C)c3c2)CC1`, the IC50 at Toll-like receptor 9 is 520 nM. Take `CNCCCN1CCC(c2ccc3[nH]c(-c4ccc(OC)c(OC)c4)c(C)c3c2)CC1`: the IC50 at Toll-like receptor 7 was 790 nM; at Toll-like receptor 9, 550 nM.
